# Source: patent US10287269B2, “Pyrazolyl pyrimidinone compounds as PDE2 inhibitors” (Merck Sharp & Dohme Corp., priority 2015, dated 2019)
# Target: T1, human PDE2A1 (Homo sapiens, UniProt O00408)
# T1 construct: GST; purchased BPS Bioscience (San Diego, Calif.) 60020; host or cells: insect cells
# Assay: PDE2 IMAP FP inhibition assay, human enzyme (PDE selectivity panel format)
# Format: biochemical
# Conditions: Lab A; read-out: Human PDE2 Ki (nM) Lab A
# In short: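 GST-tagged human PDE2A1 from insect cells, run at room temperature in 10 mM Tris pH 7.2, 10 mM MgCl2, 1 mM DTT with 50 nM FAM-cAMP plus 1000 nM cGMP for 60 min. IMAP fluorescence polarization read-out; apparent Ki derived using apparent KM 10,000 nM.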
# T1 sequence (O00408 1-920 isoform O00408-2): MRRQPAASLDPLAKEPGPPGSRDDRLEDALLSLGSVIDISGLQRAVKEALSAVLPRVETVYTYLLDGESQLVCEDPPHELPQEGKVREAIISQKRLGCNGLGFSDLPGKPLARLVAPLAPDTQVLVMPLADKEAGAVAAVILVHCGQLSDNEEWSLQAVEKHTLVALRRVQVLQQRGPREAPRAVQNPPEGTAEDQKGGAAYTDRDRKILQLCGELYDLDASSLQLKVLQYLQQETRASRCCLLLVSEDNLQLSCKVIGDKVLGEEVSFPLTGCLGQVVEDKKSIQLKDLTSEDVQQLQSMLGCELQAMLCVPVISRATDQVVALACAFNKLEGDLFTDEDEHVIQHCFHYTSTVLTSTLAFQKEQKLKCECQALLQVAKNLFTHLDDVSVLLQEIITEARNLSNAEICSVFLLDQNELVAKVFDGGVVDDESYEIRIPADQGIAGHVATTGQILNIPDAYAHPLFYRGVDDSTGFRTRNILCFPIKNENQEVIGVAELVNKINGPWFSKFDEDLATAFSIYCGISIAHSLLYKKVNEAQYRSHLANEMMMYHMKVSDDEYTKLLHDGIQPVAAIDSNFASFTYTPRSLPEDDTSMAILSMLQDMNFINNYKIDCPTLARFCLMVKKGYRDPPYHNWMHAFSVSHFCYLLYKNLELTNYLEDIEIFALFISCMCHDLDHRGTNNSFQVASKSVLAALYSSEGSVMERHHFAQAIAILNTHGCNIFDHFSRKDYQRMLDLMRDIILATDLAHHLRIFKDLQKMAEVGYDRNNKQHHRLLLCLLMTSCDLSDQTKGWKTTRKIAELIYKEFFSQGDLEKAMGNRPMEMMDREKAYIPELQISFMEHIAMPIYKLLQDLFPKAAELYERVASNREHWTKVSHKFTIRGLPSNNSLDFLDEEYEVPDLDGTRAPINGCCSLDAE
row,Structure (SMILES),Ki
1,"Cc1nc(-c2cnn(C(C)c3ccc(C4CC4)cc3F)c2)cc(=O)[nH]1 (single isomer, unassigned) [Example 91, (R)- or (S)-6-(1-(1-(4-cyclopropyl-2-fluorophenyl)ethyl)-1H-pyrazol-4-yl)-2-methylpyrimidin-4(3H)-one]",48.4 nM
2,"Cc1nc(-c2cnn(C(C)c3ccc(C4CC4)cc3C)c2)cc(=O)[nH]1 (single isomer, unassigned) [Example 94, (S)- or (R)-6-(1-(1-(4-cyclopropyl-2-methylphenyl)ethyl)-1H-pyrazol-4-yl)-2-methylpyrimidin-4(3H)-one]",52.5 nM
3,"CCc1ccc(C(C)n2cc(-c3cc(=O)[nH]c(C)n3)cn2)c(F)c1 (single isomer, unassigned) [Example 101, (R)- or (S)-6-(1-(1-(4-ethyl-2-fluorophenyl)ethyl)-1H-pyrazol-4-yl)-2-methylpyrimidin-4(3H)-one]",38.5 nM
4,"COc1ccc(Cc2nc(-c3cnn(C(C)c4ccc(C(F)(F)F)cc4F)c3)cc(=O)[nH]2)cc1 (single isomer, unassigned) [Example 139, (S)- or (R)-6-(1-(1-(2-fluoro-4-(trifluoromethyl)phenyl)ethyl)-1H-pyrazol-4-yl)-2-(4-methoxybenzyl)pyrimidin-4(3H)-one]",41.6 nM
5,"COc1ccc(Cc2nc(-c3cnn(C(C)c4ccc(C(F)(F)F)cc4F)c3)cc(=O)[nH]2)cc1F (single isomer, unassigned) [Example 146, (R)- or (S)-6-(1-(1-(2-fluoro-4-(trifluoromethyl)phenyl)ethyl)-1H-pyrazol-4-yl)-2-(3-fluoro-4-methoxybenzyl)pyrimidin-4(3H)-one]",31.2 nM
6,"Cc1ccc(C(C)n2cc(-c3cc(=O)[nH]c(C)n3)cn2)c(Cl)c1 (single isomer, unassigned) [Example 148, (R)- or (S)-6-(1-(1-(2-chloro-4-methylphenyl)ethyl)-1H-pyrazol-4-yl)-2-methylpyrimidin-4(3H)-one]",61 nM
7,"CC(C)c1nc(-c2cnn(C(C)c3ccc(C(F)(F)F)cc3F)c2)cc(=O)[nH]1 (stereo not shown) [Example 9, 6-(1-(1-(2-Fluoro-4-(trifluoromethyl)phenyl)ethyl)-1H-pyrazol-4-yl)-2-isopropylpyrimidin-4(3H)-one]",104 nM
8,"CCC(c1ccc(C(F)(F)F)cc1F)n1cc(-c2cc(=O)[nH]c(C)n2)cn1 (stereo not shown) [Example 33, 6-(1-(1-(2-fluoro-4-(trifluoromethyl)phenyl)propyl)-1H-pyrazol-4-yl)-2-methylpyrimidin-4(3H)-one]",32 nM
9,"Cc1nc(-c2cnn(C(c3ccc(C(F)(F)F)cc3F)C(C)C)c2)cc(=O)[nH]1 (stereo not shown) [Example 34, 6-(1-(1-(2-fluoro-4-(trifluoromethyl)phenyl)-2-methylpropyl)-1H-pyrazol-4-yl)-2-methylpynmidin-4(3H)-one]",44.6 nM
10,"CC(c1ccc(C(F)(F)F)cc1F)n1cc(-c2cc(=O)[nH]c(Cc3ccccc3)n2)cn1 (stereo not shown) [Example 35, 2-benzyl-6-(1-(1-(2-fluoro-4-(trifluoromethyl)phenyl)ethyl)-1H-pyrazol-4-yl)pyrimidin-4(3H)-one]",60.4 nM

# More lines, now with the values ahead:
row,Ki,Structure (SMILES)
1,5.1 nM,"Cc1nc(-c2cnn(C(C)c3ccc(C(F)(F)F)cc3Cl)c2)cc(=O)[nH]1 (single isomer, unassigned) [Example 83, (R)- or (S)-6-(1-(1-(2-chloro-4-(trifluoromethyl)phenyl)ethyl)-1H-pyrazol-4-yl)-2-methylpyrimidin-4(3H)-one]"
2,10.4 nM,"CCc1nc(-c2cnn(C(C)c3ccc(C(F)(F)F)cc3F)c2)cc(=O)[nH]1 (single isomer, unassigned) [Example 85, (R)- or (S)-2-ethyl-6-(1-(1-(2-fluoro-4-(trifluoromethyl)phenyl)ethyl)-1H-pyrazol-4-yl)pyrimidin-4(3H)-one]"
3,10.4 nM,"CCc1ccc(C(C)n2cc(-c3cc(=O)[nH]c(C)n3)cn2)c(Cl)c1 (single isomer, unassigned) [Example 99, (R)- or (S)-6-(1-(1-(2-chloro-4-ethylphenyl)ethyl)-1H-pyrazol-4-yl)-2-methylpyrimidin-4(3H)-one]"
4,19.1 nM,"Cc1nc(-c2cnn(C(C)c3ccc(C(F)(F)F)cc3F)c2)cc(=O)[nH]1 (single isomer, unassigned) [Example 136, (S)- or (R)-6-(1-(1-(2-fluoro-4-(trifluoromethyl)phenyl)ethyl)-1H-pyrazol-4-yl)-2-methylpyrimidin-4(3H)-one]"
5,7.1 nM,"COc1ccc(Cc2nc(-c3cnn(C(C)c4ccc(C(F)(F)F)cc4F)c3)cc(=O)[nH]2)cc1 (single isomer, unassigned) [Example 138, (R)- or (S)-6-(1-(1-(2-fluoro-4-(trifluoromethyl)phenyl)ethyl)-1H-pyrazol-4-yl)-2-(4-methoxybenzyl)pyrimidin-4(3H)-one]"
6,2.6 nM,"COc1cccc(Cc2nc(-c3cnn(C(C)c4ccc(C(F)(F)F)cc4F)c3)cc(=O)[nH]2)c1 (single isomer, unassigned) [Example 140, (R)- or (S)-6-(1-(1-(2-fluoro-4-(trifluoromethyl)phenyl)ethyl)-1H-pyrazol-4-yl)-2-(3-methoxybenzyl)pyrimidin-4(3H)-one]"
7,17.3 nM,"COc1cccc(Cc2nc(-c3cnn(C(C)c4ccc(C(F)(F)F)cc4F)c3)cc(=O)[nH]2)c1 (single isomer, unassigned) [Example 141, (S)- or (R)-6-(1-(1-(2-fluoro-4-(trifluoromethyl)phenyl)ethyl)-1H-pyrazol-4-yl)-2-(3-methoxybenzyl)pyrimidin-4(3H)-one]"
8,3.5 nM,"COc1cc(Cc2nc(-c3cnn(C(C)c4ccc(C(F)(F)F)cc4F)c3)cc(=O)[nH]2)ccc1F (single isomer, unassigned) [Example 142, (R)- or (S)-2-(4-fluoro-3-methoxybenzyl)-6-(1-(1-(2-fluoro-4-(trifluoromethyl)phenyl)ethyl)-1H-pyrazol-4-yl)pyrimidin-4(3H)-one]"
9,27.9 nM,"COc1cc(Cc2nc(-c3cnn(C(C)c4ccc(C(F)(F)F)cc4F)c3)cc(=O)[nH]2)ccc1F (single isomer, unassigned) [Example 143, (S)- or (R)-2-(4-fluoro-3-methoxybenzyl)-6-(1-(1-(2-fluoro-4-(trifluoromethyl)phenyl)ethyl)-1H-pyrazol-4-yl)pyrimidin-4(3H)-one]"
10,3.3 nM,"COc1ccc(Cc2nc(-c3cnn(C(C)c4ccc(C(F)(F)F)cc4F)c3)cc(=O)[nH]2)cc1F (single isomer, unassigned) [Example 147, (S)- or (R)-6-(1-(1-(2-fluoro-4-(trifluoromethyl)phenyl)ethyl)-1H-pyrazol-4-yl)-2-(3-fluoro-4-methoxybenzyl)pyrimidin-4(3H)-one]"
11,19.5 nM,CC(c1ccc(C(F)(F)F)cc1F)n1cc(-c2cc(=O)[nH]c(C3CC3)n2)cn1 (stereo not shown) [Example 10]
12,17.2 nM,"CCc1nc(-c2cnn(C(C)c3ccc(C(F)(F)F)cc3F)c2)cc(=O)[nH]1 (stereo not shown) [Example 36, 2-ethyl-6-(1-(1-(2-fluoro-4-(trifluoromethyl)phenyl)ethyl)-1H-pyrazol-4-yl)pyrimidin-4(3H)-one]"
13,7.9 nM,"Cc1nc(-c2cnn(C3(c4ccc(C(F)(F)F)cc4F)CCC3)c2)cc(=O)[nH]1 [Example 37, 6-(1-(1-(2-fluoro-4-(trifluoromethyl)phenyl)cyclobutyl)-1H-pyrazol-4-yl)-2-methylpyrimidin-4(3H)-one]"

# Same assay, conditions: Lab B; read-out: Human PDE2 Ki (nM) Lab B
row,Structure (SMILES),Ki
1,"Cc1nc(-c2cnn(C(C)c3ccc(C(F)(F)F)cc3)c2C)cc(=O)[nH]1 (single isomer, unassigned) [Example 82, (S)- or (R)-2-methyl-6-(5-methyl-1-{(1R)-1-[4-(trifluoromethyl)phenyl]ethyl}-1H-pyrazol-4-yl)pyrimidin-4(3H)-one]",184 nM
2,"Cc1nc(-c2cnn(C(C)c3ccc(OC(F)(F)F)cc3)c2)cc(=O)[nH]1 (single isomer, unassigned) [Example 127, (R)- or (S)-2-methyl-6-(1-(1-(4-(trifluoromethoxy)phenyl)ethyl)-1H-pyrazol-4-yl)pyrimidin-4(3H)-one]",103 nM
3,"COc1ccc(Cc2nc(-n3ccc(C(C)c4ccc(C(F)(F)F)cc4)n3)cc(=O)[nH]2)cc1OC (single isomer, unassigned) [Example 133, (R)- or (S)-2-(3,4-dimethoxybenzyl)-6-(3-(1-(4-(trifluoromethyl)phenyl)ethyl)-1H-pyrazol-1-yl)pyrimidin-4(3H)-one]",38.5 nM
4,"COc1ccc(Cc2nc(-n3ccc(C(C)c4ccc(C(F)(F)F)cc4)n3)cc(=O)[nH]2)cc1OC (single isomer, unassigned) [Example 134, (R)- or (S)-2-(3,4-dimethoxybenzyl)-6-(3-(1-(4-(trifluoromethyl)phenyl)ethyl)-1H-pyrazol-1-yl)pyrimidin-4(3H)-one]",66.6 nM
5,"Cc1nc(-c2cnn(C(C)c3ccc(C(F)(F)F)cc3F)c2)cc(=O)[nH]1 (single isomer, unassigned) [Example 135, (R)- or (S)-6-(1-(1-(2-fluoro-4-(trifluoromethyl)phenyl)ethyl)-1H-pyrazol-4-yl)-2-methylpyrimidin-4(3H)-one]",91.9 nM
6,"COc1ccc(Cc2nc(-c3cnn(C(C)c4ccc(C(F)(F)F)cc4F)c3)cc(=O)[nH]2)cc1 (single isomer, unassigned) [Example 139, (S)- or (R)-6-(1-(1-(2-fluoro-4-(trifluoromethyl)phenyl)ethyl)-1H-pyrazol-4-yl)-2-(4-methoxybenzyl)pyrimidin-4(3H)-one]",24.5 nM
7,"Cc1nc(-c2cnn(Cc3ccc(OC(F)(F)F)cc3)c2)cc(=O)[nH]1 [Example 29, 2-Methyl-6-(1-(4-(trifluoromethoxy)benzyl)-1H-pyrazol-4-yl)pyrimidin-4(3H)-one]",829 nM
8,"Cc1nc(-n2cc(Cc3ccc(OC(F)(F)F)cc3)cn2)cc(=O)[nH]1 [Example 30, 2-Methyl-6-(4-(4-(trifluoromethoxy)benzyl)-1H-pyrazol-1-yl)pyrimidin-4(3H)-one]",1110 nM
9,"Cc1nc(-n2cc(C(C)c3ccc(C4CC4)cc3)cn2)cc(=O)[nH]1 (stereo not shown) [Example 39, 6-(4-(1-(4-cyclopropylphenyl)ethyl)-1H-pyrazol-1-yl)-2-methylpyrimidin-4(3H)-one]",35.3 nM

# The remaining lines, values ahead:
row,Ki,Structure (SMILES)
1,7.6 nM,"Cc1nc(-c2cnn(C(C)c3ccc(C(F)(F)F)cc3F)c2)cc(=O)[nH]1 (single isomer, unassigned) [Example 136, (S)- or (R)-6-(1-(1-(2-fluoro-4-(trifluoromethyl)phenyl)ethyl)-1H-pyrazol-4-yl)-2-methylpyrimidin-4(3H)-one]"
2,5.1 nM,"COc1ccc(Cc2nc(-c3cnn(C(C)c4ccc(C(F)(F)F)cc4F)c3)cc(=O)[nH]2)cc1 (single isomer, unassigned) [Example 138, (R)- or (S)-6-(1-(1-(2-fluoro-4-(trifluoromethyl)phenyl)ethyl)-1H-pyrazol-4-yl)-2-(4-methoxybenzyl)pyrimidin-4(3H)-one]"
